Results: patent publication US20230041563A1, “N-(1,3,4-OXADIAZOL-2-YL)ARYLCARBOXAMIDES OR SALTS THEREOF, PREPARATION METHODS, HERBICIDAL COMPOSITIONS AND USES THEREOF” (priority 2018, published 2023)

How the values were obtained:
Assay type in all cases: in vivo
Abutilon theophrasti = experiment: Weeding effect in post-emergence stage (greenhouse pot spray)
In short: (§1)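 Post-emergence foliar spray on 2-3 leaf greenhouse pot plants at 15 to 500 g a.i./ha with methyl oleate emulsifiable concentrate (1.5 liter/ha) added; growth control by fresh weight after 3 weeks.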

Digitaria sanguinalis = experiment: as above
In short: as §1

Echinochloa crusgalli = experiment: as above
In short: as §1

Setaria viridis = experiment: as above
In short: as §1

Amaranthus retroflexus = experiment: as above
In short: as §1

Stellaria media = experiment: as above
In short: as §1

weeds = experiment: Actual control effects and combined effects of mixtures of active ingredients (i) and (ii), stem-leaf treatment, Gowing method; settings: stem-leaf treatment, 20 days
[1] = tested on: Indica rice (Huanghuazhan); experiment: Safety test of control experiments on rice
Excerpt: (§2) The activity level criteria for plant damage (i.e., growth control rate) are as follows: Comparative Experiments: [table]

[2] = tested on: Japonica rice (Huaidao No. 5); experiment: Safety test of control experiments on rice
Excerpt: as §2

[3] = tested on: rice and Echinochloa crusgali; experiment: Herbicide selection index between rice and Echinochloa crusgali; settings: average dose causing 10% phytotoxicity to rice divided by average dose causing 90% control efficiency to Echinochloa crusgali

## CSc1c(C(F)(F)F)ccc(C(=O)Nc2nnc(C)o2)c1F [Compound 1-1]
Abutilon theophrasti; Table 2, dose 60 g a.i./ha
  Abutilion theophrasti (activity level): 2 (Level 2: growth control rate is greater than or equal to 20% and less than 40%)
Abutilon theophrasti; Table 2, dose 125 g a.i./ha
  Abutilion theophrasti (activity level): 4 (Level 4: growth control rate is greater than or equal to 60% and less than 85%)
Abutilon theophrasti; Table 2, dose 250 g a.i./ha
  Abutilion theophrasti (activity level): 4 (Level 4: growth control rate is greater than or equal to 60% and less than 85%)
Abutilon theophrasti; Table 2, dose 500 g a.i./ha
  Abutilion theophrasti (activity level): 4 (Level 4: growth control rate is greater than or equal to 60% and less than 85%)
Abutilon theophrasti; Table 3, dose 60 g a.i./ha
  Abutilon theophrasti (activity level): 2 (Level 2: growth control rate is greater than or equal to 20% and less than 40%)
Abutilon theophrasti; Table 3, dose 120 g a.i./ha
  Abutilon theophrasti (activity level): 4 (Level 4: growth control rate is greater than or equal to 60% and less than 85%)
Digitaria sanguinalis; Table 2, dose 60 g a.i./ha
  Digitaria sanguinalis (activity level): 1 (Level 1: growth control rate is greater than or equal to 5% and less than 20%)
Digitaria sanguinalis; Table 2, dose 125 g a.i./ha
  Digitaria sanguinalis (activity level): 2 (Level 2: growth control rate is greater than or equal to 20% and less than 40%)
Digitaria sanguinalis; Table 2, dose 250 g a.i./ha
  Digitaria sanguinalis (activity level): 3 (Level 3: growth control rate is greater than or equal to 40% and less than 60%)
Digitaria sanguinalis; Table 2, dose 500 g a.i./ha
  Digitaria sanguinalis (activity level): 4 (Level 4: growth control rate is greater than or equal to 60% and less than 85%)
Digitaria sanguinalis; Table 3, dose 7.5 g a.i./ha
  Digitaria sanguinahs (activity level): 0 (Level 0: growth control rate is less than 5%)
Digitaria sanguinalis; Table 3, dose 15 g a.i./ha
  Digitaria sanguinahs (activity level): 0 (Level 0: growth control rate is less than 5%)
Digitaria sanguinalis; Table 3, dose 30 g a.i./ha
  Digitaria sanguinahs (activity level): 1 (Level 1: growth control rate is greater than or equal to 5% and less than 20%)
Digitaria sanguinalis; Table 3, dose 60 g a.i./ha
  Digitaria sanguinahs (activity level): 1 (Level 1: growth control rate is greater than or equal to 5% and less than 20%)
Digitaria sanguinalis; Table 3, dose 120 g a.i./ha
  Digitaria sanguinahs (activity level): 2 (Level 2: growth control rate is greater than or equal to 20% and less than 40%)
Echinochloa crusgalli; Table 2, dose 60 g a.i./ha
  Echinochloa crusgah (activity level): 2 (Level 2: growth control rate is greater than or equal to 20% and less than 40%)
Echinochloa crusgalli; Table 2, dose 125 g a.i./ha
  Echinochloa crusgah (activity level): 4 (Level 4: growth control rate is greater than or equal to 60% and less than 85%)
Echinochloa crusgalli; Table 2, dose 250 g a.i./ha
  Echinochloa crusgah (activity level): 4 (Level 4: growth control rate is greater than or equal to 60% and less than 85%)
Echinochloa crusgalli; Table 2, dose 500 g a.i./ha
  Echinochloa crusgah (activity level): 4 (Level 4: growth control rate is greater than or equal to 60% and less than 85%)
Echinochloa crusgalli; Table 3, dose 7.5 g a.i./ha
  Echinochloa crusgali (activity level): 0 (Level 0: growth control rate is less than 5%)
Echinochloa crusgalli; Table 3, dose 15 g a.i./ha
  Echinochloa crusgali (activity level): 1 (Level 1: growth control rate is greater than or equal to 5% and less than 20%)
Echinochloa crusgalli; Table 3, dose 30 g a.i./ha
  Echinochloa crusgali (activity level): 2 (Level 2: growth control rate is greater than or equal to 20% and less than 40%)
Echinochloa crusgalli; Table 3, dose 60 g a.i./ha
  Echinochloa crusgali (activity level): 2 (Level 2: growth control rate is greater than or equal to 20% and less than 40%)
Setaria viridis; Table 3, dose 7.5 g a.i./ha
  Setaria viridis (activity level): 0 (Level 0: growth control rate is less than 5%)
Setaria viridis; Table 3, dose 15 g a.i./ha
  Setaria viridis (activity level): 0 (Level 0: growth control rate is less than 5%)
Setaria viridis; Table 3, dose 30 g a.i./ha
  Setaria viridis (activity level): 1 (Level 1: growth control rate is greater than or equal to 5% and less than 20%)
Setaria viridis; Table 3, dose 60 g a.i./ha
  Setaria viridis (activity level): 1 (Level 1: growth control rate is greater than or equal to 5% and less than 20%)
Setaria viridis; Table 3, dose 120 g a.i./ha
  Setaria viridis (activity level): 2 (Level 2: growth control rate is greater than or equal to 20% and less than 40%)
Amaranthus retroflexus; Table 2, dose 60 g a.i./ha
  Amaranthus retroflexus (activity level): 4 (Level 4: growth control rate is greater than or equal to 60% and less than 85%)
Amaranthus retroflexus; Table 2, dose 125 g a.i./ha
  Amaranthus retroflexus (activity level): 4 (Level 4: growth control rate is greater than or equal to 60% and less than 85%)
Amaranthus retroflexus; Table 2, dose 250 g a.i./ha
  Amaranthus retroflexus (activity level): 4 (Level 4: growth control rate is greater than or equal to 60% and less than 85%)
Amaranthus retroflexus; Table 2, dose 500 g a.i./ha
  Amaranthus retroflexus (activity level): 4 (Level 4: growth control rate is greater than or equal to 60% and less than 85%)
Stellaria media; Table 2, dose 60 g a.i./ha
  Stellaria media (activity level): 3 (Level 3: growth control rate is greater than or equal to 40% and less than 60%)
Stellaria media; Table 2, dose 125 g a.i./ha
  Stellaria media (activity level): 4 (Level 4: growth control rate is greater than or equal to 60% and less than 85%)
Stellaria media; Table 2, dose 250 g a.i./ha
  Stellaria media (activity level): 4 (Level 4: growth control rate is greater than or equal to 60% and less than 85%)
Stellaria media; Table 2, dose 500 g a.i./ha
  Stellaria media (activity level): 4 (Level 4: growth control rate is greater than or equal to 60% and less than 85%)
weeds; Cyperus difformis, (i) 1 g a.i./mu
  Control effect of (i) alone at corresponding dose: 6.2%
weeds; Cyperus difformis, (i) 5 g a.i./mu
  Control effect of (i) alone at corresponding dose: 30.6%
weeds; Echinochloa phyllopogon, (i) 1 g a.i./mu
  Control effect of (i) alone at corresponding dose: 8.3%
weeds; Echinochloa phyllopogon, (i) 2 g a.i./mu
  Control effect of (i) alone at corresponding dose: 18.7%
weeds; Echinochloa phyllopogon, (i) 3 g a.i./mu
  Control effect of (i) alone at corresponding dose: 43.1%
weeds; Leptochloa chinensis, (i) 5 g a.i./mu
  Control effect of (i) alone at corresponding dose: 3.8%
weeds; Leptochloa chinensis, (i) 15 g a.i./mu
  Control effect of (i) alone at corresponding dose: 20.3%
weeds; Monochoria vaginalis, (i) 5 g a.i./mu
  Control effect of (i) alone at corresponding dose: 9.6%
weeds; Monochoria vaginalis, (i) 6 g a.i./mu
  Control effect of (i) alone at corresponding dose: 12.3%
weeds; Monochoria vaginalis, (i) 7.5 g a.i./mu
  Control effect of (i) alone at corresponding dose: 15.1%
weeds; Monochoria vaginalis, (i) 15 g a.i./mu
  Control effect of (i) alone at corresponding dose: 23.9%
weeds; Sagittaria trifolia, (i) 1 g a.i./mu
  Control effect of (i) alone at corresponding dose: 10.9%
weeds; Sagittaria trifolia, (i) 5 g a.i./mu
  Control effect of (i) alone at corresponding dose: 33.5%

## CCCSc1c(C(F)(F)F)ccc(C(=O)Nc2nnc(C)o2)c1F [Compound 1-7]
Abutilon theophrasti; Table 2, dose 250 g a.i./ha
  Abutilion theophrasti (activity level): 5 (Level 5: growth control rate is above 85%)
Abutilon theophrasti; Table 2, dose 500 g a.i./ha
  Abutilion theophrasti (activity level): 5 (Level 5: growth control rate is above 85%)
Digitaria sanguinalis; Table 2, dose 250 g a.i./ha
  Digitaria sanguinalis (activity level): 5 (Level 5: growth control rate is above 85%)
Digitaria sanguinalis; Table 2, dose 500 g a.i./ha
  Digitaria sanguinalis (activity level): 5 (Level 5: growth control rate is above 85%)
Echinochloa crusgalli; Table 2, dose 250 g a.i./ha
  Echinochloa crusgah (activity level): 5 (Level 5: growth control rate is above 85%)
Echinochloa crusgalli; Table 2, dose 500 g a.i./ha
  Echinochloa crusgah (activity level): 5 (Level 5: growth control rate is above 85%)
Amaranthus retroflexus; Table 2, dose 250 g a.i./ha
  Amaranthus retroflexus (activity level): 5 (Level 5: growth control rate is above 85%)
Amaranthus retroflexus; Table 2, dose 500 g a.i./ha
  Amaranthus retroflexus (activity level): 5 (Level 5: growth control rate is above 85%)
Stellaria media; Table 2, dose 250 g a.i./ha
  Stellaria media (activity level): 5 (Level 5: growth control rate is above 85%)
Stellaria media; Table 2, dose 500 g a.i./ha
  Stellaria media (activity level): 5 (Level 5: growth control rate is above 85%)
[1]; Dose 250 g a.i./ha
  Indica rice (Huanghuazhan) (plant damage level): 0 (Level 0: growth control rate is less than 5%)
[2]; Dose 250 g a.i./ha
  Japonica rice (Huaidao No. 5) (plant damage level): 0 (Level 0: growth control rate is less than 5%)
[3]
  Selection index between rice and Echinochloa crusgali: >5

## CCCS(=O)(=O)c1c(C(F)(F)F)ccc(C(=O)Nc2nnc(C)o2)c1F [Compound 1-9]
Abutilon theophrasti; Table 2, dose 125 g a.i./ha
  Abutilion theophrasti (activity level): 5 (Level 5: growth control rate is above 85%)
Abutilon theophrasti; Table 2, dose 250 g a.i./ha
  Abutilion theophrasti (activity level): 5 (Level 5: growth control rate is above 85%)
Digitaria sanguinalis; Table 2, dose 125 g a.i./ha
  Digitaria sanguinalis (activity level): 5 (Level 5: growth control rate is above 85%)
Digitaria sanguinalis; Table 2, dose 250 g a.i./ha
  Digitaria sanguinalis (activity level): 5 (Level 5: growth control rate is above 85%)
Echinochloa crusgalli; Table 2, dose 125 g a.i./ha
  Echinochloa crusgah (activity level): 5 (Level 5: growth control rate is above 85%)
Echinochloa crusgalli; Table 2, dose 250 g a.i./ha
  Echinochloa crusgah (activity level): 5 (Level 5: growth control rate is above 85%)
Amaranthus retroflexus; Table 2, dose 125 g a.i./ha
  Amaranthus retroflexus (activity level): 5 (Level 5: growth control rate is above 85%)
Amaranthus retroflexus; Table 2, dose 250 g a.i./ha
  Amaranthus retroflexus (activity level): 5 (Level 5: growth control rate is above 85%)
Stellaria media; Table 2, dose 125 g a.i./ha
  Stellaria media (activity level): 5 (Level 5: growth control rate is above 85%)
Stellaria media; Table 2, dose 250 g a.i./ha
  Stellaria media (activity level): 5 (Level 5: growth control rate is above 85%)
[1]; Dose 250 g a.i./ha
  Indica rice (Huanghuazhan) (plant damage level): 0 (Level 0: growth control rate is less than 5%)
[2]; Dose 250 g a.i./ha
  Japonica rice (Huaidao No. 5) (plant damage level): 0 (Level 0: growth control rate is less than 5%)
[3]
  Selection index between rice and Echinochloa crusgali: >5

## Cc1nnc(NC(=O)c2ccc(C(F)(F)F)c(S(C)(=O)=O)c2C)o1 [Control Compound B, reference compound]
[1]; Dose 125 g a.i./ha
  Indica rice (Huanghuazhan) (plant damage level): 3 (Level 3: growth control rate is greater than or equal to 40% and less than 60%)
[1]; Dose 250 g a.i./ha
  Indica rice (Huanghuazhan) (plant damage level): 4 (Level 4: growth control rate is greater than or equal to 60% and less than 85%)
[2]; Dose 125 g a.i./ha
  Japonica rice (Huaidao No. 5) (plant damage level): 3 (Level 3: growth control rate is greater than or equal to 40% and less than 60%)
[2]; Dose 250 g a.i./ha
  Japonica rice (Huaidao No. 5) (plant damage level): 3 (Level 3: growth control rate is greater than or equal to 40% and less than 60%)
[3]
  Selection index between rice and Echinochloa crusgali: 0.8

## Cc1nnc(NC(=O)c2ccc(C(F)(F)F)c(N3CCCC3=O)c2Cl)o1 [Control Compound C, reference compound]
[1]; Dose 125 g a.i./ha
  Indica rice (Huanghuazhan) (plant damage level): 5 (Level 5: growth control rate is above 85%)
[2]; Dose 125 g a.i./ha
  Japonica rice (Huaidao No. 5) (plant damage level): 4 (Level 4: growth control rate is greater than or equal to 60% and less than 85%)
[3]
  Selection index between rice and Echinochloa crusgali: 1.1

## CCS(=O)(=O)c1c(C(F)(F)F)ccc(C(=O)Nc2nnc(C)o2)c1Cl [Control Compound D, reference compound]
[1]; Dose 60 g a.i./ha
  Indica rice (Huanghuazhan) (plant damage level): 5 (Level 5: growth control rate is above 85%)
[2]; Dose 60 g a.i./ha
  Japonica rice (Huaidao No. 5) (plant damage level): 5 (Level 5: growth control rate is above 85%)
[3]
  Selection index between rice and Echinochloa crusgali: 1
